The values that follow come from US20230406831A1, “COMPOUNDS AND METHODS OF INHIBITING BACTERIAL CHAPERONIN SYSTEMS” (THE TRUSTEES OF INDIANA UNIVERSITY, priority 2020, published 2023).

Experiment [1] concerns the target T1, native MDH (Sus scrofa, UniProt P00346).
T1 construct: soluble pig heart MDH from Roche, product #10127248001; purchased Roche 10127248001; host or cells: pig heart
T1 sequence (P00346 25-338): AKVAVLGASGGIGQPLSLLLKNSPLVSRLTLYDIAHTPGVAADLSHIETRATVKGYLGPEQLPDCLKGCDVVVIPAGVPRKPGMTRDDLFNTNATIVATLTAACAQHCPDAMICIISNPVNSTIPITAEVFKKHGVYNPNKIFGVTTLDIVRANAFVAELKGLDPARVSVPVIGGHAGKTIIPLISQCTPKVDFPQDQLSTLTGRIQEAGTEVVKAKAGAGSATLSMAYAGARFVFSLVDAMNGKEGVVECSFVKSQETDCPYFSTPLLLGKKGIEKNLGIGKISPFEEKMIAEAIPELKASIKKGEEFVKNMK
The experiment is described as follows: Native MDH enzymatic activity counter-screen. Type of experiment: biochemical, pig. Particulars: compounds added after refolding and EDTA quench, read-out: Biochemical Assay IC50 Native MDH Activity. The procedure: Counter-screening compounds for inhibition of native MDH enzymatic activity.
Reagent Preparations & Assay Protocol: This assay was performed as described above for the GroEL/ES-dMDH refolding assay; however, the assay protocol differed in the sequence of compound addition to the assay plates. The refolding reactions were allowed to proceed for 45 min at 37° C. in the absence of test compounds (complete refolding of MDH occurs), then quenched with the EDTA stock. Compounds were then pin-transferred into the plates after the EDTA quenching step; thus, compounds effects are only possible by inhibiting the fully-refolded MDH reporter substrate. Next enzymatic activity of the refolded MDH was initiated by addition of 20 μL MDH enzymatic assay stock (20 mM sodium mesoxalate and 2.4 mM NADH in reaction buffer, 50 mM Tris pH 7.4, 50 mM KCl, 1 mM DTT), and followed by measuring the NADH absorbance in each well at 340 nm using a Molecular Devices SpectraMax Plus384 microplate reader
A340 nm measurements were recorded at 0.5 minutes (start point) and at successive time points until the amount of NADH consumed reached ˜90% (end point, generally between 20-35 minutes). Compounds were tested in 8-point, 3-fold dilution series (62.5 μM to 29 nM during the reporter reaction) in clear, flat-bottom 384-well microtiter plates.
DMSO was used as a negative control, and previously discovered native MDH inhibitors were used as positive controls. IC50 values for the test compounds were obtained by plotting the % inhibition results in GraphPad Prism 6 and analyzing by non-linear regression using the log (inhibitor) vs. response (variable slope) equation. Results presented represent the averages of IC50 values obtained from at least quadriplicate (duplicate of duplicate) replicates.
In general terms: The purpose of a counterscreen is to sort out artefacts and off-target activity.

The target in experiment [2] is T2, GroEL/ES (Escherichia coli, UniProt P0A6F5).
T2 construct: made in house; host or cells: GroEL in E. coli DH5a; GroES in E. coli BL21 (DE3)
The experiment is described as follows: GroEL/ES-mediated dMDH refolding assay. It counts as biochemical, E. coli. Put shortly: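 Pre-formed chaperonin–denatured pig heart MDH complexes (50 nM GroEL or HSP60, 60 nM GroES or HSP10, 12 nM dMDH) refolded with 1 mM ATP and compound (100 μM–46 nM) at 37 °C, ~20-40 min for GroEL/ES or ~40-60 min for HSP60/10. After EDTA quench, MDH activity was read as NADH loss at A340. IC50 came from variable-slope regression.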

Like-named read-outs stand apart in the source and are kept apart here. Where only a bound is given, the exact number is not on record here.

T2 sequence (P0A6F5 2-548): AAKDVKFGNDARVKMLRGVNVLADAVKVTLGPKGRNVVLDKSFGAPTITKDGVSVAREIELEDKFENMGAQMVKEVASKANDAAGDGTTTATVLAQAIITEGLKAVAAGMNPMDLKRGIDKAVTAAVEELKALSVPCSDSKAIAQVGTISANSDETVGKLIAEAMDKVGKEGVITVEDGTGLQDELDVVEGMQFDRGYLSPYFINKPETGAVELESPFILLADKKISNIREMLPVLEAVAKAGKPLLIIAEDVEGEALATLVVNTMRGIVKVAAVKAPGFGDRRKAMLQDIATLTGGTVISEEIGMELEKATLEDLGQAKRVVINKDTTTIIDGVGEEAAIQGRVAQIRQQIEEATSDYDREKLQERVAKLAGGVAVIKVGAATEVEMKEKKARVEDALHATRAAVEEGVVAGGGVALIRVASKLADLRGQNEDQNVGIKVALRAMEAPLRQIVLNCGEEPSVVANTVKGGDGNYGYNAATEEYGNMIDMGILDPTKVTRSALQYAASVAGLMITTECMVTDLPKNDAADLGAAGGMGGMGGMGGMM

Regarding `Cc1cc(C(C#N)c2ccc(Cl)cc2)c(Cl)cc1NC(=O)c1ccccc1` (stereo not drawn) [Compound 82, N-(5-chloro-4-((4-chlorophenyl)(cyano)methyl)-2-methylphenyl)benzamide], the IC50 (usually the concentration that inhibits the measured activity by half) in experiment [1] (Table 2) was above 63 µM; in experiment [2] it was 74 µM.
For `CC(=O)Nc1cc(Cl)c(C(C#N)c2ccc(Cl)cc2)cc1C` (stereo not drawn) [Compound 83, N-(5-chloro-4-((4-chlorophenyl)(cyano)methyl)-2-methylphenyl)acetamide] the same measures were above 63 µM and above 100 µM.
Take `COc1ccc(Cl)cc1C(=O)Nc1ccc(C(C#N)c2ccccc2)cc1` (stereo not drawn) [Compound 84, 5-chloro-N-(4-(cyano(phenyl)methyl)phenyl)-2-methoxybenzamide]: the results for the IC50 in experiment [1] (Table 3) and in experiment [2] were above 63 µM and 94 µM, respectively.
The corresponding values for `N#CC(c1ccccc1)c1ccc(NC(=O)c2cc(Cl)ccc2O)cc1` (stereo not drawn) [Compound 85, 5-chloro-N-(4-(cyano(phenyl)methyl)phenyl)-2-hydroxybenzamide] are above 63 µM and 56 µM.
Consider `COc1ccc(Cl)cc1C(=O)Nc1ccc(Oc2ccc(Cl)cc2)c(Cl)c1` [Compound 86, 5-chloro-N-(3-chloro-4-(4-chlorophenoxy)phenyl)-2-methoxybenzamide], for which the IC50 in experiment [1] (Table 3) is above 63 µM; in experiment [2] it was above 100 µM.
In the case of `O=C(Nc1ccc(Oc2ccc(Cl)cc2)c(Cl)c1)c1cc(Cl)ccc1O` [Compound 87, 5-chloro-N-(3-chloro-4-(4-chlorophenoxy)phenyl)-2-hydroxybenzamide], the values for the half-maximal inhibitory concentration (IC50) in experiment [1] (Table 3) and in experiment [2] were above 63 µM and 30 µM, respectively.
For `COc1ccc(Cl)cc1C(=O)Nc1ccc(Oc2ccc(Cl)cc2)cc1` [Compound 88, 5-chloro-N-(4-(4-chlorophenoxy)phenyl)-2-methoxybenzamide] the same measures were above 63 µM and above 100 µM.
The corresponding values for `O=C(Nc1ccc(Oc2ccc(Cl)cc2)cc1)c1cc(Cl)ccc1O` [Compound 89, 5-chloro-N-(4-(4-chlorophenoxy)phenyl)-2-hydroxybenzamide] are above 63 µM and 46 µM.
In the case of `COc1ccc(Cl)cc1C(=O)Nc1ccc(Oc2ccccc2)c(Cl)c1` [Compound 90, 5-chloro-N-(3-chloro-4-phenoxyphenyl)-2-methoxybenzamide], the IC50 is above 63 µM in experiment [1] (Table 3) and above 100 µM in experiment [2].
For `O=C(Nc1ccc(Oc2ccccc2)c(Cl)c1)c1cc(Cl)ccc1O` [Compound 91, 5-chloro-N-(3-chloro-4-phenoxyphenyl)-2-hydroxybenzamide] the same measures were above 63 µM and 51 µM.
The corresponding values for `COc1ccc(Cl)cc1C(=O)Nc1ccc(Oc2ccccc2)cc1` [Compound 92, 5-chloro-2-methoxy-N-(4-phenoxyphenyl)benzamide] are above 63 µM and above 100 µM.
With `O=C(Nc1ccc(Oc2ccccc2)cc1)c1cc(Cl)ccc1O` [Compound 93, 5-chloro-2-hydroxy-N-(4-phenoxyphenyl)benzamide], the IC50 was above 63 µM in experiment [1] (Table 3) and 68 µM in experiment [2].
Regarding `COc1ccc(Cl)cc1C(=O)Nc1ccc(Sc2nc3ccccc3s2)c(Cl)c1` [Compound 94, N-(4-(benzo[d]thiazol-2-ylthio)-3-chlorophenyl)-5-chloro-2-methoxybenzamide], the IC50 in experiment [1] (Table 3) is above 63 µM; in experiment [2], 61 µM.
For `O=C(Nc1ccc(Sc2nc3ccccc3s2)c(Cl)c1)c1cc(Cl)ccc1O` [Compound 95, N-(4-(benzo[d]thiazol-2-ylthio)-3-chlorophenyl)-5-chloro-2-hydroxybenzamide] the same measures were above 63 µM and 21 µM.
For `COc1ccc(Cl)cc1C(=O)Nc1ccc(Sc2nc3ccccc3s2)cc1` [Compound 96, N-(4-(benzo[d]thiazol-2-ylthio)phenyl)-5-chloro-2-methoxybenzamide] the same measures were above 63 µM and 59 µM.
The corresponding values for `O=C(Nc1ccc(Sc2nc3ccccc3s2)cc1)c1cc(Cl)ccc1O` [Compound 97, N-(4-(benzo[d]thiazol-2-ylthio)phenyl)-5-chloro-2-hydroxybenzamide] are above 63 µM and 24 µM.
In the case of `COc1ccc(Cl)cc1C(=O)Nc1ccc(Cc2ccccc2)cc1` [Compound 98, N-(4-benzylphenyl)-5-chloro-2-methoxybenzamide], the IC50 in experiment [1] (Table 3) is above 63 µM; in experiment [2] it was above 100 µM.
For the molecule `O=C(Nc1ccc(Cc2ccccc2)cc1)c1cc(Cl)ccc1O` [Compound 99, N-(4-benzylphenyl)-5-chloro-2-hydroxybenzamide], the IC50 in experiment [1] (Table 3) was above 63 µM; in experiment [2], 77 µM.
For `COc1ccc(Cl)cc1C(=O)Nc1ccc(CCc2ccccc2)cc1` [Compound 100, 5-chloro-2-methoxy-N-(4-phenethylphenyl)benzamide] the same measures were above 63 µM and above 100 µM.
For `O=C(Nc1ccc(CCc2ccccc2)cc1)c1cc(Cl)ccc1O` [Compound 101] the same measures were above 63 µM and 54 µM.
The corresponding values for `COc1ccc(Cl)cc1C(=O)Nc1ccc(OCc2ccccc2)cc1` [Compound 102, N-(4-(benzyloxy)phenyl)-5-chloro-2-methoxybenzamide] are above 63 µM and above 100 µM.
Regarding `O=C(Nc1ccc(OCc2ccccc2)cc1)c1cc(Cl)ccc1O` [Compound 103, N-(4-(benzyloxy)phenyl)-5-chloro-2-hydroxybenzamide], the IC50 in experiment [1] (Table 3) is above 63 µM; in experiment [2], 44 µM.
Consider `COc1ccc(Cl)cc1C(=O)Nc1ccc(NC(C)=O)cc1` [Compound 104, N-(4-acetamidophenyl)-5-chloro-2-methoxybenzamide], for which the IC50 in experiment [1] (Table 3) was above 63 µM; in experiment [2] it was above 100 µM.
The corresponding values for `CC(=O)Nc1ccc(NC(=O)c2cc(Cl)ccc2O)cc1` [Compound 105, N-(4-acetamidophenyl)-5-chloro-2-hydroxybenzamide] are above 63 µM and above 100 µM.
As for `COC(=O)c1ccc(NC(=O)c2cc(Cl)ccc2OC)cc1` [Compound 106, methyl 4-(5-chloro-2-methoxybenzamido)benzoate], the figures for the IC50 in experiment [1] (Table 3) and in experiment [2] were above 63 µM and 46 µM, respectively.
The corresponding values for `COC(=O)c1ccc(NC(=O)c2cc(Cl)ccc2O)cc1` [Compound 107, methyl 4-(5-chloro-2-hydroxybenzamido)benzoate] are above 63 µM and 83 µM.
For `COc1ccc(Cl)cc1C(=O)Nc1ccc(C(=O)O)cc1` [Compound 108, 4-(5-chloro-2-methoxybenzamido)benzoic acid] the same measures were above 63 µM and above 100 µM.
The corresponding values for `COc1ccc(Cl)cc1C(=O)Nc1ccc(CC#N)cc1` [Compound 110, 5-chloro-N-(4-(cyanomethyl)phenyl)-2-methoxybenzamide] are above 63 µM and 54 µM.
As for `N#CCc1ccc(NC(=O)c2cc(Cl)ccc2O)cc1` [Compound 111, 5-chloro-N-(4-(cyanomethyl)phenyl)-2-hydroxybenzamide], the 50% inhibitory concentration (IC50) in experiment [1] (Table 3) is above 63 µM; in experiment [2], above 100 µM.
The corresponding values for `COc1ccc(NC(=O)c2cc(Cl)ccc2OC)cc1` [Compound 112, 5-chloro-2-methoxy-N-(4-methoxyphenyl)benzamide] are above 63 µM and above 100 µM.
Regarding `COc1ccc(NC(=O)c2cc(Cl)ccc2O)cc1` [Compound 113, 5-chloro-2-hydroxy-N-(4-methoxyphenyl)benzamide], the IC50 is above 63 µM in experiment [1] (Table 3) and above 100 µM in experiment [2].
For `COc1ccc(Cl)cc1C(=O)Nc1ccc(O)cc1` [Compound 114, 5-chloro-N-(4-hydroxyphenyl)-2-methoxybenzamide] the same measures were above 63 µM and above 100 µM.
`O=C(Nc1ccc(O)cc1)c1cc(Cl)ccc1O` [Compound 115, 5-chloro-2-hydroxy-N-(4-hydroxyphenyl)benzamide]: the concentration for half-maximal inhibition (IC50) in experiment [1] (Table 3) was above 63 µM; in experiment [2], above 100 µM.
